Measured values taken from article PMC10611374, “Characterization of the Hemolytic Activity of Mastoparan Family Peptides from Wasp Venoms” (Toxins, 2023).
pEC50: −log10 of the molar value. Ends that are not written are not given here.

Key:
[1] = tested on: human red blood cells (HRBCs); assay: Hemolytic assay on human red blood cells; format: cell-based; settings: for HRBC Hemolysis (hemolysis rate at 320 μg/mL) / pEC50: human red blood cells 5% (v/v) in PBS, 37 °C 1 h, OD 540 nm, 1% Triton X-100 = 100%; for HRBC Hemolysis (hemolysis rate at 320 μg/mL): peptide 320 μg/mL (highest dose), PBS = 0%, mean of three independent experiments; for pEC50: peptide 10-320 μg/mL twofold dilutions, four-parameter logistic fit of mean of three independent experiments, '-' = hemolytic activity too low to calculate the EC50, read-out: HRBC EC50 (hemolytic activity); for hemolytic activity on HRBCs, result in words: mutants relative to Protopolybia-MPIII
Method: (§1) Fresh human red blood cells were obtained from healthy donors and collected in a sterile blood collecting vessel covered with sodium citrate (1:9) as the anticoagulating agent. Rat red blood cells were collected from the abdominal aorta in sterile blood-collecting vessels coated with sodium citrate (1:4) after the SD rats were anaesthetized with isoflurane. Then, the cells were washed three times with phosphate-buffered saline via centrifugation (1000× g, 4 °C, 5 min) and prepared in a sterile 96-well polypropylene plate to achieve a final concentration of 5% (v/v). Twofold dilutions of the peptides were prepared in PBS to 100 μL and mixed with an equal volume of HRBCs/RRBCs suspension to final peptide concentrations ranging from 10 to 320 μg/mL. After coincubation at 37 °C for 1 h, the plate was centrifuged (2000× g, 4 °C, 20 min), and 100 μL of supernatant was taken for optical density measurements at 540 nm using a microtiter plate reader (SpectraMax 190). The HRBCs/RRBCs were assayed with PBS (blank) or 1% Triton X-100 (positive control) to represent 0% and 100% hemolysis, respectively. The percent hemolysis was calculated according to the following equation: Hemolysis Rate (%) = 100% × (Amastoparans − Ablank)/(ATriton X-100 − Ablank). Three independent experiments were performed, and the mean hemolysis rate at each dose was used to calculate the EC50 in Sigmaplot software.
(§2) Statistical analysis was performed with GraphPad Prism software (version 5.0, San Diego, CA, USA). A two-tailed Student’s t-test was used to calculate the statistical probability in this study. Differences in the data were considered to be statistically significant when the p value was equal to or less than 0.05. The curve of hemolysis induced by wasp mastoparans was generated in SigmaPlot 12.5 software, and the EC50 was calculated according to the equation (Four Parameter Logistic Curve): y = min + (max − min)/(1 + (x/EC50)^−Hillslope). The heat map of hemolytic activity of mastoparan peptide was analysed in R software which is based on the value of log2(EC50).

[2] = tested on: rat red blood cells (RRBCs); assay: Hemolytic assay on rat red blood cells; format: cell-based, SD rats; settings: for RRBC Hemolysis (hemolysis rate at 320 μg/mL) / pEC50: rat red blood cells 5% (v/v) in PBS, 37 °C 1 h, OD 540 nm, 1% Triton X-100 = 100%; for RRBC Hemolysis (hemolysis rate at 320 μg/mL): peptide 320 μg/mL (highest dose), PBS = 0%, mean of three independent experiments; for pEC50: peptide 10-320 μg/mL twofold dilutions, four-parameter logistic fit of mean of three independent experiments, '-' = hemolytic activity too low to calculate the EC50, read-out: RRBC EC50 (hemolytic activity)
Method: as §1, §2

[3] = tested on: E. coli; settings: reported antibacterial activity; reference per peptide in Table 3; cited from earlier work
[4] = tested on: S. aureus; settings: reported antibacterial activity; reference per peptide in Table 3; cited from earlier work
[5] = tested on: B. subtilis; settings: reported antibacterial activity; reference per peptide in Table 3; cited from earlier work
[6] = tested on: Escherichia coli and Staphylococcus aureus/Bacillus subtilis; parameters: method as in Table 3 refs 12, 13, 18-30; settings: both on Escherichia coli and Staphylococcus aureus/Bacillus subtilis; reported values, ref Table 3 refs 12, 13, 18-30; cited from earlier work

| Substance | HRBC Hemolysis (hemolysis rate at 320 μg/mL) [1] [%] | pEC50 [1] | hemolytic activity on HRBCs, result in words [1] | hemolytic activity on RRBCs, result in words [2] | RRBC Hemolysis (hemolysis rate at 320 μg/mL) [2] [%] | pEC50 [2] | MIC E. coli [3] [µM] | MIC S. aureus [4] [µM] | MIC B. subtilis [5] [µM] | MIC (antibacterial activity, summary) [6] [µM] |
| --- | --- | --- | --- | --- | --- | --- | --- | --- | --- | --- |
| INLKGLIKKVASLLT-OH [EpVP1] | 9 | < 3.40 | almost no hemolytic activity | almost no hemolytic activity | 0 | < 3.40 | 25 | 100 | 5 | – |
| INLKAIAALAKKLL-NH2 [Mastoparan-M] | 18 | < 3.40 | – | – | 28 | < 3.40 | 13.5 | 3.38 | – | – |
| LNLKGLIKKVASLLN-OH [Eumenitin-R] | 5 | < 3.40 | almost no hemolytic activity | almost no hemolytic activity | 7 | < 3.40 | 30 | 60 | – | – |
| LNLKGIFKKVASLLT-OH [Eumenitin] | 6 | < 3.40 | almost no hemolytic activity | almost no hemolytic activity | 4 | < 3.40 | 6 | 6 | >60 | – |
| LKLMGIVKKVLGAL-NH2 [EMP-EM1] | 21 | < 3.40 | – | – | 7 | < 3.40 | 7 | 34 | 68 | – |
| INWKGIAAMKKLL-NH2 [Mastoparan-like peptide 12b] | 0 | ≤ 3.40 | – | – | 0 | < 3.40 | 10 | 2.5 | – | ≤ 10 |
| INWKKIAEIGKQVLSAL-NH2 [Dominulin B] | 8 | ≤ 3.40 | – | – | 0 | < 3.40 | 1 | – | 4 | ≤ 10 |
| LKLLGIVKKVLGAI-NH2 [EMP-EM2] | 8 | < 3.40 | – | – | 2 | < 3.40 | 3 | 17 | 68 | – |
| KDLHTVVSAILQAL-NH2 [OdVP3a] | 24 | < 3.40 | – | – | 27 | < 3.40 | >200 | >200 | 10 | – |
| INLKAIAAFAKKLL-NH2 [Mastoparan-T(D)] | 15 | < 3.40 | – | – | 19 | < 3.40 | 5.3 | 15.9 | – | – |
| INMKASAAVAKKLL-NH2 [MP-VB1] | 0 | < 3.40 | – | – | 7 | < 3.40 | 10.3 | 2.5 | – | – |
| INWKKIAEVGGKILSSL-NH2 [Dominulin A] | 4 | ≤ 3.40 | – | – | 0 | < 3.40 | 1 | – | 4 | ≤ 10 |
